Kd data for 5 molecules are collected here from ChEMBL document CHEMBL1150977, “A quantitative analysis of kinase inhibitor selectivity” (Nat Biotechnol, 2008).

Broadly, the Kd is the concentration at which binding is half-saturated.

In test [1] the target is T1, Tyrosine-protein kinase Tec (Homo sapiens, UniProt P42680).
T1 sequence (P42680 whole entry): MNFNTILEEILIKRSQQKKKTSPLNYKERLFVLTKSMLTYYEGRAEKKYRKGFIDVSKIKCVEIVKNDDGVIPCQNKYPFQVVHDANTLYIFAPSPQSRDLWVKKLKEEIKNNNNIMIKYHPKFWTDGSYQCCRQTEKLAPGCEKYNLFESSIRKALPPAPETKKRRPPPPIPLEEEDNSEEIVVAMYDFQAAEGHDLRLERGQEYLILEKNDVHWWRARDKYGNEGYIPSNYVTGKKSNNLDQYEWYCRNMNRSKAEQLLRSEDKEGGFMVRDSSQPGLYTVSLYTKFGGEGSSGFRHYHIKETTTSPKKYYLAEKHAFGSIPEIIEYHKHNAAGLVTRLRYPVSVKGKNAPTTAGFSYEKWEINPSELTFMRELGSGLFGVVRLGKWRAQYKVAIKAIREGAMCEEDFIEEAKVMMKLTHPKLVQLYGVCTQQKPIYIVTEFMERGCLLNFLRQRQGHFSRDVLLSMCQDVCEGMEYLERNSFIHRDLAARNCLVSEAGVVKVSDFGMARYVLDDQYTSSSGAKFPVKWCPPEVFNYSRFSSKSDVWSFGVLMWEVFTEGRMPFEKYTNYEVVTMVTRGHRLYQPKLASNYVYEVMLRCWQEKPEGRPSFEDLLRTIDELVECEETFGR

Test [2] addresses T2, Calcium/calmodulin-dependent protein kinase type IV (Homo sapiens, UniProt Q16566).
T2 sequence (Q16566 whole entry): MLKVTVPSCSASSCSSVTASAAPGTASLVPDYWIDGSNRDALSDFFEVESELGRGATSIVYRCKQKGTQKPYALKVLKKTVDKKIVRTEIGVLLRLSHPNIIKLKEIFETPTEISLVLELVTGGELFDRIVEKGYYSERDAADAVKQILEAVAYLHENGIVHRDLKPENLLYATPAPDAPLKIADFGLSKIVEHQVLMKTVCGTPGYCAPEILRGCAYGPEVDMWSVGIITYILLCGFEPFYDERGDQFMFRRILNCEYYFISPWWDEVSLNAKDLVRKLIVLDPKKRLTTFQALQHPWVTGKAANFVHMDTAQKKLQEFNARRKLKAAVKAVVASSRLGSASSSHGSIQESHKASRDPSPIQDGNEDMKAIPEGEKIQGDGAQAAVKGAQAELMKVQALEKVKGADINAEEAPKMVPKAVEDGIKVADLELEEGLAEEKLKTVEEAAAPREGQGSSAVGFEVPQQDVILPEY

Test [3] addresses Serine/threonine-protein kinase MARK1 (Homo sapiens, UniProt Q9P0L2).
Test [4] addresses Serine/threonine-protein kinase tousled-like 2 (Homo sapiens, UniProt Q86UE8).
For test [5], the target named is T3, Serine/threonine-protein kinase D1 (Homo sapiens, UniProt Q15139).
T3 sequence (Q15139 whole entry): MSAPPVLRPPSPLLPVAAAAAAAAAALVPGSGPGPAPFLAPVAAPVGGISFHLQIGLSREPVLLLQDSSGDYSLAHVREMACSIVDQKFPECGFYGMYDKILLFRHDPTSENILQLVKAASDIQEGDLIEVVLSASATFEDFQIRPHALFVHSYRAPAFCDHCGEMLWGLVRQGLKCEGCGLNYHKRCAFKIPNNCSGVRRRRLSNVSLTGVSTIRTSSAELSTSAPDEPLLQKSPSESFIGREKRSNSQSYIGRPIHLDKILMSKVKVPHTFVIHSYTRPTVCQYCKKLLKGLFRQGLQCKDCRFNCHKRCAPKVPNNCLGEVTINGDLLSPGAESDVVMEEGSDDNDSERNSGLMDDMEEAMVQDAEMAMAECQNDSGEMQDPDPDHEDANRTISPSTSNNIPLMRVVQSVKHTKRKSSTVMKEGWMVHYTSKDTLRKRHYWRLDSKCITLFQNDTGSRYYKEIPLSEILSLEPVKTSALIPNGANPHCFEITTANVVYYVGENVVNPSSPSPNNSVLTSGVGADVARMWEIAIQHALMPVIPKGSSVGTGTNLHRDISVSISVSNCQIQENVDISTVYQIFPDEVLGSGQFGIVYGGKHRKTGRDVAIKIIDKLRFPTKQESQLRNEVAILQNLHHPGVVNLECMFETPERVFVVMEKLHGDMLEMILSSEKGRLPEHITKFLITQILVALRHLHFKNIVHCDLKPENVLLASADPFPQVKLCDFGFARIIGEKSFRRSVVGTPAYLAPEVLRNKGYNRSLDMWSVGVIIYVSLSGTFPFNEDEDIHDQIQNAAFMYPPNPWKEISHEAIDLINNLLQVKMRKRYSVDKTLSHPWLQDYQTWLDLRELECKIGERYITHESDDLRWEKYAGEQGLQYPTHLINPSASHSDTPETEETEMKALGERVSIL

For test [6], the target named is Ribosomal protein S6 kinase alpha-5 (Homo sapiens, UniProt O75582).
For test [7], the target named is Tyrosine-protein kinase Lck (Homo sapiens, UniProt P06239).
For test [8], the target named is Casein kinase II subunit alpha' (Homo sapiens, UniProt P19784).
In test [9] the target is Fibroblast growth factor receptor 1 (Homo sapiens, UniProt P11362).
Test [10] deals with Calcium/calmodulin-dependent protein kinase type II subunit delta (Homo sapiens, UniProt Q13557).
For test [11], the target named is Mitogen-activated protein kinase kinase kinase kinase 4 (Homo sapiens, UniProt O95819).
Test [12] addresses Maternal embryonic leucine zipper kinase (Homo sapiens, UniProt Q14680).
The target in test [13] is Ribosomal protein S6 kinase alpha-2 (Homo sapiens, UniProt Q15349).
The target in test [14] is Dual specificity mitogen-activated protein kinase kinase 2 (Homo sapiens, UniProt P36507).
Test [15] deals with Tyrosine-protein kinase CSK (Homo sapiens, UniProt P41240).
The target of test [16] is cAMP-dependent protein kinase catalytic subunit beta (Homo sapiens, UniProt P22694).
The target in test [17] is Phosphorylase b kinase gamma catalytic chain, skeletal muscle/heart isoform (Homo sapiens, UniProt Q16816).
The target in test [18] is Serine/threonine-protein kinase PAK 2 (Homo sapiens, UniProt Q13177).

Fibroblast growth factor receptor 1, sequence (P11362 whole entry): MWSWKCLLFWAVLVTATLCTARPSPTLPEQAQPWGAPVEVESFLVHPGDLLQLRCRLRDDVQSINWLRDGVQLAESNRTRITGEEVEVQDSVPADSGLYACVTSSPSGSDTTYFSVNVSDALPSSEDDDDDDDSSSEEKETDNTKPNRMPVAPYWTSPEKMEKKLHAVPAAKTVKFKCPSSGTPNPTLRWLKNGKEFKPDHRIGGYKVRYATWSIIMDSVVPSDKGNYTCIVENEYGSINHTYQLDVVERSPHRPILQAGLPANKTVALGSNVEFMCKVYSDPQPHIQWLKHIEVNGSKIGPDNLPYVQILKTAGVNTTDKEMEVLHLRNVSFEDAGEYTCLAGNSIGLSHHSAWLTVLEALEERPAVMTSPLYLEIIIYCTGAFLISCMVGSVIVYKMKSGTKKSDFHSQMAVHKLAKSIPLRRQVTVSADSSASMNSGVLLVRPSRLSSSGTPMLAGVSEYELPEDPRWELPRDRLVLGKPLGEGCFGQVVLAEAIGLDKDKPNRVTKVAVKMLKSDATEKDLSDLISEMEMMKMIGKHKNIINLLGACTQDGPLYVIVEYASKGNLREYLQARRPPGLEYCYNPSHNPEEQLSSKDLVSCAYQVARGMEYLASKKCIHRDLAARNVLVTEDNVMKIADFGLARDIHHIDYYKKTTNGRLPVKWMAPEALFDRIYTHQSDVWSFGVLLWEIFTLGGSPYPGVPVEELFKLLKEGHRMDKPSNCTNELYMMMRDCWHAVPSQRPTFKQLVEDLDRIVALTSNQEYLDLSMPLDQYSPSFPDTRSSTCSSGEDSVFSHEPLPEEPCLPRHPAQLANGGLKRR
Casein kinase II subunit alpha', sequence (P19784 whole entry): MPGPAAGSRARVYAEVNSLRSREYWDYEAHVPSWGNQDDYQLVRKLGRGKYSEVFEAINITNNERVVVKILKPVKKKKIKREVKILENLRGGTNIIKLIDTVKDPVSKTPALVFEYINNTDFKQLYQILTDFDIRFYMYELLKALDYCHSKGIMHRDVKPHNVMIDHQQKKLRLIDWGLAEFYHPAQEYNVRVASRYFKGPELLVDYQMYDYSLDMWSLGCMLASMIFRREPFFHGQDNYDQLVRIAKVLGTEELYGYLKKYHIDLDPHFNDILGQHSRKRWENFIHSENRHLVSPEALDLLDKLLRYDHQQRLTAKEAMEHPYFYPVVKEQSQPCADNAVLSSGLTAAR
Calcium/calmodulin-dependent protein kinase type II subunit delta, sequence (Q13557 whole entry): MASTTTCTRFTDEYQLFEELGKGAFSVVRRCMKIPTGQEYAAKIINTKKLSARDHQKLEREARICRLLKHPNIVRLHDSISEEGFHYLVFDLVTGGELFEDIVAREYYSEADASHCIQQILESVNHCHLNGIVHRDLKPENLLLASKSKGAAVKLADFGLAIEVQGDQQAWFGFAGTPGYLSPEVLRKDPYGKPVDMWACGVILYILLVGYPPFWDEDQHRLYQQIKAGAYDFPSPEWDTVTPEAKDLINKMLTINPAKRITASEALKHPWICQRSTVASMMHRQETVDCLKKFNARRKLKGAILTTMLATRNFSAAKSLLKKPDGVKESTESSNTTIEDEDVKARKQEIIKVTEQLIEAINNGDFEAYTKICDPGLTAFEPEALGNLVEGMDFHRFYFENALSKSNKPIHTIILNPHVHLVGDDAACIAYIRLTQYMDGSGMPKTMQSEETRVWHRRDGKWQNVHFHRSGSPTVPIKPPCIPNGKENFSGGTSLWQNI
Ribosomal protein S6 kinase alpha-2, sequence (Q15349 whole entry): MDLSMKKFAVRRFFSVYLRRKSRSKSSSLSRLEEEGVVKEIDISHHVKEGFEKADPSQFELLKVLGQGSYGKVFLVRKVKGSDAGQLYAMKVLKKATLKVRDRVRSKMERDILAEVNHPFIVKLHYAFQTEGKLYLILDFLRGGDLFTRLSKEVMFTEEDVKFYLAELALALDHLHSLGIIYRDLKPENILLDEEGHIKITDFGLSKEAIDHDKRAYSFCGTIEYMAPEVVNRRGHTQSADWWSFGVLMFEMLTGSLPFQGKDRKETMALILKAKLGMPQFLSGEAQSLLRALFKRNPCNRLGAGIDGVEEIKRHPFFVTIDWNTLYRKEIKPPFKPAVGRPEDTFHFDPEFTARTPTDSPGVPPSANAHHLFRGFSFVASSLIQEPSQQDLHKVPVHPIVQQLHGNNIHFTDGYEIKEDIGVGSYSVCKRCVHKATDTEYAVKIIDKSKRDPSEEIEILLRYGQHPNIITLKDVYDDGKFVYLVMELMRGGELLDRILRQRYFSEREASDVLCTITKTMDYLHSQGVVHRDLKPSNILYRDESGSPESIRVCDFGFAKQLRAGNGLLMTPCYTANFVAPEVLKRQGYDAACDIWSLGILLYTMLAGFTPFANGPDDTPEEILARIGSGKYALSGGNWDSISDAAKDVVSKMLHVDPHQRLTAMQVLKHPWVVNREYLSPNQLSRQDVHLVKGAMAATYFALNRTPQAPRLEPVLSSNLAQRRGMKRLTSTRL
Ribosomal protein S6 kinase alpha-5, sequence (O75582 whole entry): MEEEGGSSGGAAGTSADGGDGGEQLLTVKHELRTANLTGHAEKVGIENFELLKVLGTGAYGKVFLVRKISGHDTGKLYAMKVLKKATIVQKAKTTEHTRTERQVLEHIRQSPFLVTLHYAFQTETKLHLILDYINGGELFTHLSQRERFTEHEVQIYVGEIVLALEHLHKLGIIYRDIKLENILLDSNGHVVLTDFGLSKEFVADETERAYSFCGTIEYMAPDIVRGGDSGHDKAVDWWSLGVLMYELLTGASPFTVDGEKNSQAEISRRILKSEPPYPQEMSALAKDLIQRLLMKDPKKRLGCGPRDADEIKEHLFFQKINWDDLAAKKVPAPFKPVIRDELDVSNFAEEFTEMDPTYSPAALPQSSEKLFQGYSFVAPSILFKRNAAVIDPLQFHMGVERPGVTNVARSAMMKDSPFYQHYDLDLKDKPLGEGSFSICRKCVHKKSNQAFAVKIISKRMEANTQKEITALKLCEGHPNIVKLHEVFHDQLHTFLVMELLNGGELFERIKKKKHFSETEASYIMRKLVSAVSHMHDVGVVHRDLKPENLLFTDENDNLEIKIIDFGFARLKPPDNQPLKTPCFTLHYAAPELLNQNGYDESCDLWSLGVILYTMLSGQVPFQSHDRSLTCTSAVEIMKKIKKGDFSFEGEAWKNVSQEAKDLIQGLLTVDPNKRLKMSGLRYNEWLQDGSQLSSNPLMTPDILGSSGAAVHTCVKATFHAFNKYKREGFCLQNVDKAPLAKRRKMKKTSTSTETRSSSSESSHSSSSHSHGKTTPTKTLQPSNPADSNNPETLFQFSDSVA
Serine/threonine-protein kinase MARK1, sequence (Q9P0L2 whole entry): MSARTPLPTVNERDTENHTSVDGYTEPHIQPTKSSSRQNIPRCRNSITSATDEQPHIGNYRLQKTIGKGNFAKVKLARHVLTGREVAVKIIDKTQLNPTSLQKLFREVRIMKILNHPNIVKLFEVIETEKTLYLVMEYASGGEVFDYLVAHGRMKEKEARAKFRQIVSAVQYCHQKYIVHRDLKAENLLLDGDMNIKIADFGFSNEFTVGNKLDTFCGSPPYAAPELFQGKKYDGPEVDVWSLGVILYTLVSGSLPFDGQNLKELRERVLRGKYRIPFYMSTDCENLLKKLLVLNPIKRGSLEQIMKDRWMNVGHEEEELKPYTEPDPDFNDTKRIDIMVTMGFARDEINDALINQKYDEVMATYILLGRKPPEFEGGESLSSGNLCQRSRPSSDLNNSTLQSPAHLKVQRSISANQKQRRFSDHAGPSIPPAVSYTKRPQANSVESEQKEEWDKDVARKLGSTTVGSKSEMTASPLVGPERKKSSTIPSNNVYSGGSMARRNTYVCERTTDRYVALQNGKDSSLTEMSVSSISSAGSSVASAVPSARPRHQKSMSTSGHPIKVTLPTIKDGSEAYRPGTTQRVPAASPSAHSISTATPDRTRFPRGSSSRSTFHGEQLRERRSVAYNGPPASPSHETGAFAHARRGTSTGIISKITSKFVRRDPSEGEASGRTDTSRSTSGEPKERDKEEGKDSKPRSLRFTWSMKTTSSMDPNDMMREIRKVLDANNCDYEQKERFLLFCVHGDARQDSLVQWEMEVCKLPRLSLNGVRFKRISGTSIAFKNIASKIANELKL
Dual specificity mitogen-activated protein kinase kinase 2, sequence (P36507 whole entry): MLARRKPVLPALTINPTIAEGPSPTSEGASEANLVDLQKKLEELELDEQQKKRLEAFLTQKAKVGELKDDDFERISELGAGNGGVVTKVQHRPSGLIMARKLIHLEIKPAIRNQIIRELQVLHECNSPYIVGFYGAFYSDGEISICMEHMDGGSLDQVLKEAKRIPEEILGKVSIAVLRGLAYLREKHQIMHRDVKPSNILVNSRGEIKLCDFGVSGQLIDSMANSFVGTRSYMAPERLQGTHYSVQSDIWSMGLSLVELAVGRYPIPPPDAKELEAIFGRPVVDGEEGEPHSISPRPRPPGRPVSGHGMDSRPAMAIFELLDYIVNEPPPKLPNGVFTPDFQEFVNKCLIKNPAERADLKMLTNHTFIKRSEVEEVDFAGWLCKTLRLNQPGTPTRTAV
Maternal embryonic leucine zipper kinase, sequence (Q14680 whole entry): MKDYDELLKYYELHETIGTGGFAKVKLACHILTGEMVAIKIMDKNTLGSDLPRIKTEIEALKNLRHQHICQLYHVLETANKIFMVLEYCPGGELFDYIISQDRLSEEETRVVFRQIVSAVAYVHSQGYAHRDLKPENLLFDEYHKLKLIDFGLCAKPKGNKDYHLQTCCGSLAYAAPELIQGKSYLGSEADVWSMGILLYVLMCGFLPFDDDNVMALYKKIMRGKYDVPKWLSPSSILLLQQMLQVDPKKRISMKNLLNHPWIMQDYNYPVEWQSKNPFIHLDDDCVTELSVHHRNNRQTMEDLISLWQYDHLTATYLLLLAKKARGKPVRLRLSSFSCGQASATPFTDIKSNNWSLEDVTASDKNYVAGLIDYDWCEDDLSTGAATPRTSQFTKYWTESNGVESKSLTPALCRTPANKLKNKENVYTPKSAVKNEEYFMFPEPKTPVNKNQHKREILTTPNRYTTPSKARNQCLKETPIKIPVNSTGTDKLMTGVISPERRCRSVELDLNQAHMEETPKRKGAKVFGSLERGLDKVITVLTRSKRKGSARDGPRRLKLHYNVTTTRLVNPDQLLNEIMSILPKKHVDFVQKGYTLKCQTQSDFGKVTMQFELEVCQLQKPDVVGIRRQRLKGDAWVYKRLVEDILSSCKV

In the case of `COCC(=O)NC/C=C/c1ccc2ncnc(Nc3ccc(Oc4ccc(C)nc4)c(C)c3)c2c1` [CP-724714], the dissociation constant Kd in test [1], in test [2], in test [3], in test [4], in test [5] and in test [6] was more than 10 µM in each case. Also, the Kd in test [7], in test [8], in [9], in [10], in test [11] and in test [12] was more than 10 µM in each case. The Kd in test [13], in test [14], in test [15], in test [16], in [17] and in test [18] was more than 10 µM in each case.

Turning to `Nc1nc(Nc2ccc(S(N)(=O)=O)cc2)nn1C(=O)c1c(F)cccc1F` [JNJ-7706621], the Kd in test [2], in [6], in test [10], in test [12], in test [13] and in [15] was more than 10 µM each time. The Kd in [16], in test [17] and in [18] was more than 10 µM each time.

On to `CCOc1cc2ncc(C#N)c(Nc3ccc(F)c(Cl)c3)c2cc1NC(=O)/C=C/CN(C)C` [PELITINIB], for which the Kd in test [1], in test [2], in test [4], in test [5], in [6] and in [8] was more than 10 µM each time. Besides, the Kd in [9] is more than 10 µM; in test [10], more than 10 µM; in [12] it was more than 10 µM; in [13], 8.7 µM; in test [16] it was more than 10 µM; in test [18], more than 10 µM.

Turning to `Oc1ccc(-c2nc(-c3ccncc3)c(-c3ccc(F)cc3)[nH]2)cc1` [SB-202190], the Kd in test [1], in test [2], in test [3], in [4], in test [5] and in [6] was more than 10 µM in each case. Besides, the Kd in [7], in test [8], in test [9], in test [10], in test [11] and in test [12] was more than 10 µM in each case. Besides, the Kd in test [13] was more than 10 µM; in test [14], 9.6 µM; in test [15], more than 10 µM; in test [16] it was 0.53 µM; in [17], more than 10 µM; in test [18], more than 10 µM.

Regarding `NC(=O)c1ccc(-c2nc(-c3ccc4c(c3)OCO4)c(-c3ccccn3)[nH]2)cc1` [SB-431542], the Kd in [1], in test [2], in test [3], in [4], in test [6] and in test [7] was more than 10 µM each time. Also, the Kd in test [8], in test [9], in [10], in test [11], in test [12] and in [13] was more than 10 µM throughout. The Kd in [14], in test [15], in test [16], in test [17] and in [18] was more than 10 µM throughout.
